A value given as a limit tells only on which side of the number the result lay.

In the experiment the target is T1, apelin receptor (APJ) (Homo sapiens, UniProt P35414).
T1 sequence (P35414 1-380): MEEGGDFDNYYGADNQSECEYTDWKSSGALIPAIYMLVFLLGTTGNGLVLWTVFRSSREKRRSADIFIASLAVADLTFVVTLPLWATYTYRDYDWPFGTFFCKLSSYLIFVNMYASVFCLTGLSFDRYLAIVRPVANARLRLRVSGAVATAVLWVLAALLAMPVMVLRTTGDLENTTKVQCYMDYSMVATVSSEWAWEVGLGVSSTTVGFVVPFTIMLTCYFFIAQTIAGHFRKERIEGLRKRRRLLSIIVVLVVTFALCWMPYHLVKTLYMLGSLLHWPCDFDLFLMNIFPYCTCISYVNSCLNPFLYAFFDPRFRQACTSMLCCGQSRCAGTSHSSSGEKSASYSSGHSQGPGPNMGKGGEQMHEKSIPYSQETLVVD
The experiment is described as follows: In vitro apelin agonist activity (methods of Giddings et al., Apelin-13 as positive control). Type of experiment: cell-based. The note with it: in vitro apelin agonist activity, methods of Giddings et al., Apelin-13 as positive control; read-out: EC50 (nM) Ave. The source says: Characterization of the Apelin Agonist Activity of the Compounds
1:39-47, the contents of which are hereby incorporated by reference in its entirety. Using the methods described in Giddings et al. and Apelin-13 as a positive control.
With `COc1cccc(OC)c1-c1cc(C(=O)N[C@@H](/C=C/c2ccccn2)CC(=O)NC2CCC2)nn1C1CCCC1` [compound 435, (3R,4E)-N-cyclobutyl-3-{[1-cyclopentyl-5-(2,6-dimethoxyphenyl)-1H-pyrazol-3-yl]formamido}-5-(pyridin-2-yl)pent-4-enamide], the EC50 was determined as 9210 nM.

As for `Cc1cnc(NC(=O)C[C@H](CCN2CCC(F)(F)CC2)NC(=O)c2cc(-c3ccccc3C(F)(F)F)n(C3CCCC3)n2)s1` [compound 436, (3S)-3-({1-cyclopentyl-5-[2-(trifluoromethyl)phenyl]-1H-pyrazol-3-yl]formamido)-5-(4,4-difluoropiperidin-1-yl)-N-(5-methyl-1,3-thiazol-2-yl)pentanamide], the concentration for a half-maximal effect (EC50) is 58 nM.

Consider `C#Cc1ccccc1-c1cc(C(=O)N[C@@H](CCN2CCCCC2)CC(=O)NC2CCC2)nn1C1CCCC1` [compound 438, (3S)-N-cyclobutyl-3-{[1-cyclopentyl-5-(2-ethynylphenyl)-1H-pyrazol-3-yl]formamido}-5-(piperidin-1-yl)pentanamide], for which the EC50 was determined as 290 nM.

On to `O=C(C[C@H](CCN1CCC(F)(F)CC1)NC(=O)c1cc(-c2ccccc2C(F)(F)F)n(C2CCCC2)n1)NCc1ccccc1` [compound 439, (3S)-N-benzyl-3-({1-cyclopentyl-5-[2-(trifluoromethyl)phenyl]-1H-pyrazol-3-yl}formamido)-5-(4,4-difluoropiperidin-1-yl)pentanamide], for which the EC50 stood at 920 nM.

Turning to `O=C(C[C@H](CCN1CCC(F)(F)CC1)NC(=O)c1cc(-c2ccccc2C(F)(F)F)n(C2CCCC2)n1)NCC1CCCCC1` [compound 440, (3S)-N-(cyclohexylmethyl)-3-({1-cyclopentyl-5-[2-(trifluoromethyl)phenyl]-1H-pyrazol-3-yl]formamido)-5-(4,4-difluoropiperidin-1-yl)pentanamide], the EC50 was 301 nM.

Take `CC(C)C[C@@H](CC(=O)NCc1ccccc1)NC(=O)c1cc(-c2ccccc2C(F)(F)F)n(C2CCCC2)n1` [compound 441, (3S)-N-benzyl-3-({1-cyclopentyl-5-[2-(trifluoromethyl)phenyl]-1H-pyrazol-3-yl}formamido)-5-methylhexanamide]: the EC50 is more than 10000 nM.

Turning to `O=C(CCNC(=O)c1cc(-c2ccccc2C(F)(F)F)n(C2CCCC2)n1)NCc1ccccc1` [compound 442, N-benzyl-3-({1-cyclopentyl-5-[2-(trifluoromethyl)phenyl]-1H-pyrazol-3-yl}formamido)propanamide], the EC50 was more than 10000 nM.

Regarding `COc1cccc(OC)c1-c1cc(C(=O)N[C@@H](CCN2CCCCC2)Cc2nnnn2C)nn1C1CCCC1` [compound 445, 1-cyclopentyl-5-(2,6-dimethoxyphenyl)-N-[(2S)-1-(1-methyl-1H-1,2,3,4-tetrazol-5-yl)-4-(piperidin-1-yl)butan-2-yl)-1H-pyrazole-3-carboxamide], the EC50 is 2830 nM.

Take `CN(C(=O)C[C@H](CCN1CCCC(F)(F)C1)NC(=O)c1cc(-c2ccccc2Cl)n(C2CCCC2)n1)c1nccs1` [compound 447, (3S)-3-{[5-(2-chlorophenyl)-1-cyclopentyl-1H-pyrazol-3-yl]formamido}-5-(3,3-difluoropiperidin-1-yl)-N-methyl-N-(1,3-thiazol-2-yl)pentanamide]: the EC50 was determined as 84 nM.

On to `COc1cccc(OC)c1-c1cc(C(=O)N[C@@H](CCN2CCCCC2)Cc2nccs2)nn1C1CCCC1` [compound 448, 1-cyclopentyl-5-(2,6-dimethoxyphenyl)-N-[(2S)-4-(piperidin-1-yl)-1-(1,3-thiazol-2-yl)butan-2-yl]-1H-pyrazole-3-carboxamide], for which the EC50 was determined as 1340 nM.

As for `O=C(CCNC(=O)c1cc(-c2ccccc2C(F)(F)F)n(C2CCCC2)n1)Nc1nccs1` [compound 449, 3-({1-cyclopentyl-5-[2-(trifluoromethyl)phenyl]-1H-pyrazol-3-yl}formamido)-N-(1,3-thiazol-2-yl)propanamide], the EC50 turned out to be 12700 nM.

`O=C(N[C@@H](CCN1CCCC(F)(F)C1)Cc1nnc[nH]1)c1cc(-c2ccccc2Cl)n(C2CCCC2)n1` [compound 450, 5-(2-chlorophenyl)-1-cyclopentyl-N-[(2S)-4-(3,3-difluoropiperidin-1-yl)-1-(4H-1,2,4-triazol-3-yl)butan-2-yl]-1H-pyrazole-3-carboxamide]: the concentration for a half-maximal effect (EC50) came to 30 nM.

For `CN(C(=O)C[C@H](CCN1CCCC(F)(F)C1)NC(=O)c1cc(-c2ccccc2C(F)(F)F)n(C2CCCC2)n1)c1ncco1` [compound 451, (3S)-3-({1-cyclopentyl-5-[2-(trifluoromethyl)phenyl]-1H-pyrazol-3-yl}formamido)-5-(3,3-difluoropiperidin-1-yl)-N-methyl-N-(1,3-oxazol-2-yl)pentanamide], the EC50 turned out to be 27 nM.

Regarding `CN(C(=O)C[C@H](CCN1CCCC(F)(F)C1)NC(=O)c1cc(-c2ccccc2Cl)n(C2CCCC2)n1)c1ncco1` [compound 452, (3S)-3-{[5-(2-chlorophenyl)-1-cyclopentyl-1H-pyrazol-3-yl]formamido}-5-(3,3-difluoropiperidin-1-yl)-N-methyl-N-(1,3-oxazol-2-yl)pentanamide], the EC50 is 70 nM.

For the compound `O=C(C[C@H](CCN1CCCC(F)(F)C1)NC(=O)c1cc(-c2ccncc2Cl)n(C2CCCC2)n1)NC1CCC1` [compound 457, (3S)-3-{[5-(3-chloropyridin-4-yl)-1-cyclopentyl-1H-pyrazol-3-yl]formamidol}-N-cyclobutyl-5-(3,3-difluoropiperidin-1-yl)pentanamide], the 50% effective concentration (EC50) worked out at 1320 nM.

As for `Cc1nnc(C[C@H](CCN2CCCC(F)(F)C2)NC(=O)c2cc(-c3ccccc3Cl)n(C3CCCC3)n2)[nH]1` [compound 458, 5-(2-chlorophenyl)-1-cyclopentyl-N-[(2S)-4-(3,3-difluoropiperidin-1-yl)-1-(5-methyl-4H-1,2,4-triazol-3-yl)butan-2-yl]-1H-pyrazole-3-carboxamide], the EC50 was 261 nM.

`O=C(N[C@@H](CCN1CCCC(F)(F)C1)Cc1nnc(C(F)(F)F)[nH]1)c1cc(-c2ccccc2Cl)n(C2CCCC2)n1` [compound 459]: the EC50 was 243 nM.

In the case of `O=C(C[C@H](CCN1CCCC(F)(F)C1)NC(=O)c1cc(-c2cnccc2C(F)(F)F)n(C2CCCC2)n1)NC1CCC1` [compound 460, (3S)-N-cyclobutyl-3-(f 1-cyclopentyl-544-(trifluoromethyppyridin-3-yl1-1H-pyrazol-3-yl}formamido)-5-(3,3-difluoropiperidin-1-yl)pentanamide], the EC50 amounted to 23 nM.

With `O=C(O)C[C@H](CCc1ccc(F)cc1)NC(=O)c1cc(-c2ccccc2C(F)(F)F)n(C2CCCC2)n1` [compound 463], the EC50 was 1240 nM.

With `NNC(=O)C[C@H](CCc1ccc(F)cc1)NC(=O)c1cc(-c2ccccc2C(F)(F)F)n(C2CCCC2)n1` [compound 464], the half-maximal effective concentration (EC50) came out at 1040 nM.

For `NNC(=O)C[C@H](CCN1CCCC(F)(F)C1)NC(=O)c1cc(-c2ccccc2Cl)n(C2CCCC2)n1` [compound 465, 5-(2-chlorophenyl)-1-cyclopentyl-N-[(2S)-4-(3,3-difluoropiperidin-1-yl)-1-(hydrazinecarbonyl)butan-2-yl]-1H-pyrazole-3-carboxamide], the concentration for a half-maximal effect (EC50) stood at 191 nM.

For the compound `O=C(C[C@H](CCN1CCCC(F)(F)C1)NC(=O)c1cc(-c2cnccc2Cl)n(C2CCCC2)n1)NC1CCC1` [compound 466, (3S)-3-{[5-(4-chloropyridin-3-yl)-1-cyclopentyl-1H-pyrazol-3-yl]formamido}-N-cyclobutyl-5-(3,3-difluoropiperidin-1-yl)pentanamide], the concentration for a half-maximal effect (EC50) was found to be 1220 nM.

As to `O=C(O)C[C@H](CCN1CCCC(F)(F)C1)NC(=O)c1cc(-c2cnccc2Cl)n(C2CCCC2)n1` [compound 467, (3S)-3-{[5-(4-chloropyridin-3-yl)-1-cyclopentyl-1H-pyrazol-3-yl]formamido}-5-(3,3-difluoropiperidin-1-yl)pentanoic acid], the EC50 was more than 10000 nM.

Regarding `O=C(O)C[C@H](CCN1CCCC(F)(F)C1)NC(=O)c1cc(-c2cccnc2Cl)n(C2CCCC2)n1` [compound 468], the EC50 is 1670 nM.

Take `O=C(C[C@H](CCN1CCCC(F)(F)C1)NC(=O)c1cc(-c2cccnc2Cl)n(C2CCCC2)n1)NC1CCC1` [compound 469, (3S)-3-{[5-(2-chloropyridin-3-yl)-1-cyclopentyl-1H-pyrazol-3-yl]formamido}-N-cyclobutyl-5-(3,3-difluoropiperidin-1-yl)pentanamide]: the EC50 came to 133 nM.

As to `O=C(N[C@@H](CCc1ccc(F)cc1)Cc1nnc[nH]1)c1cc(-c2ccccc2C(F)(F)F)n(C2CCCC2)n1` [compound 470, 1-cyclopentyl-N-[(2S)-4-(4-fluorophenyl)-1-(4H-1,2,4-triazol-3-yl)butan-2-yl]-5-[2-(trifluoromethyl)phenyl]-1H-pyrazole-3-carboxamide], the EC50 was determined as 435 nM.

For the compound `Cc1nnc(C[C@H](CCc2ccc(F)cc2)NC(=O)c2cc(-c3ccccc3C(F)(F)F)n(C3CCCC3)n2)[nH]1` [compound 471, 1-cyclopentyl-N-[(2S)-4-(4-fluorophenyl)-1-(5-methyl-4H-1,2,4-triazol-3-yl)butan-2-yl]-5-[2-(trifluoromethyl)phenyl]-1H-pyrazole-3-carboxamide], the half-maximal effective concentration (EC50) is 1140 nM.

For `O=C(N[C@@H](CCc1ccc(F)cc1)Cc1nnc(C(F)(F)F)o1)c1cc(-c2ccccc2C(F)(F)F)n(C2CCCC2)n1` [compound 475, 1-cyclopentyl-N-[(2S)-4-(4-fluorophenyl)-1-[5-(trifluoromethyl)-1,3,4-oxadiazol-2-yl]butan-2-yl]-5-[2-(trifluoromethyl)phenyl]-1H-pyrazole-3-carboxamide], the EC50 turned out to be 146 nM.

The record behind these values is patent publication US11535630B2, “Apelin receptor (APJ) agonists and uses thereof” (Research Triangle Institute, priority 2015, dated 2022).
